From US20260152794A1, “EFFICACY OF CHRONIC PELVIC PAIN TREATMENT” (THE UNIVERSITY COURT OF THE UNIVERSITY OF EDINBURGH, priority 2022, published 2026)

Assays:
[1] = test system: women with chronic pelvic pain; assay: GaPP2 trial secondary analysis: gabapentin analgesic (pain) response, worst and average pain on numerical rating scale; type: in vivo, human; details: for Average pain (NRS), End of study: mean; for Average pain (NRS), End of study / Worst pain (NRS), End of study: numerical rating scale 1-10; for Worst pain (NRS), End of study: median
Source text: (§1) This study is a planned secondary analysis of the GaPP2 trial, a UK-based multicentre, randomised, placebo-controlled trial of gabapentin versus placebo in women with chronic pelvic pain. Trial protocol including ethical approval and exclusion and inclusion criteria are published in full elsewhere. (17) All participants were women aged 18-50 years of age, were using or willing to use contraception to avoid pregnancy and had no obvious pelvic pathology at laparoscopy which must have taken place at least 2 weeks and less than 36 months prior to consent. Participants were randomly assigned to gabapentin (titrated to maximum dose 2700 mg daily) or placebo for 16 weeks. At inclusion to the trial, participants were asked to provide a saliva sample for inclusion in this study.
(§2) Cases were categorised into two phenotypes assessing the analgesic response to gabapentin and the degree of intolerance (side-effect burden). Gabapentin analgesic response was defined categorically using the coprimary outcomes of the GaPP2 trial: worst and average pain. Gabapentin ‘responders’ were defined as having reported a ≥30% reduction in worst and/or average pain scores on a numerical rating scale (1-10) after 12 weeks of gabapentin exposure. Gabapentin intolerance was also categorised categorically using a cut-off of ≥3 side-effects reported during the study period. Cases were categorised into ≥3 side-effects and <3 side-effects.

[2] = test system: women with chronic pelvic pain; assay: GaPP2 trial secondary analysis: gabapentin intolerance (side-effect burden); type: in vivo, human; details: side-effects reported during the study period; genotyped participants
Source text: as §1
as §2, with “Cases were categorised into ≥3 side-effects and <3 side-effects.” left out

[3] = test system: women with chronic pelvic pain; assay: Mechanistic fMRI study: brain response to abdominal punctate stimuli before and after 12 weeks of treatment; type: in vivo, human; details: rs4442490 TT responders (n = 2) compared with TG/GG non-responders (n = 5); brain regions of Table 4
Source text: Within the sample taking part in the gabapentin RCT, a small number also took part in a mechanistic fMRI study, undergoing MRI brain scans before and after 12 weeks of treatment. […] Punctate task fMRI pre-processing is described in the supplementary materials. For those for whom both genetic and imaging data was available, the gabapentin pre- and post-treatment scans were compared. The first-level contrast of post-treatment>pre-treatment punctate vs rest was taken into a random effects analysis comparing SNP variants, with clusters achieving a whole-brain, FWE-corrected significance of p<0.05 being reported.

[4] = test system: women with chronic pelvic pain; details: GaPP2 trial, women with CPP (reference 7); cited from earlier work
[5] = test system: women with chronic pelvic pain; details: embedded mechanistic study of GaPP2 (reference 8); cited from earlier work
[6] = test system: women with chronic pelvic pain; details: GaPP2 trial, women with CPP (reference 7); cited from earlier work; remark: listed apart in the source
[7] = Pain non-responder group (n = 46)
[8] = after 12 weeks of gabapentin exposure, genotyped participants

NCC1(CC(=O)O)CCCCC1 [gabapentin]
Average pain (NRS), End of study [1, 7]: 5.8 | Worst pain (NRS), End of study [1, 7]: 9 | Average pain (NRS), End of study ([1]; Pain responder group (n = 31), gabapentin titrated to maximum 2700 mg daily): 2.5 | Worst pain (NRS), End of study ([1]; Pain responder group (n = 31)): 6 | number of pain non-responders [1, 8]: (n = 46) | number of pain responders (≥30% reduction in worst and/or average pain scores) [1, 8]: (n = 31) | average reduction in average pain ([1]; subjects in the gabapentin pain responder group): 47% | number of participants with <3 side-effects [2]: <3 side-effects (n = 23) | number of participants with ≥3 side-effects [2]: ≥3 side-effects (n = 53) | fMRI punctate activation after treatment versus before [3]: decrease in punctate activation | improvement of worst or average pain scores versus placebo [4]: not superior to placebo | effect on brain region in response to abdominal punctate stimuli (functional MRI) [5]: appeared to exert an effect on the anterior cingulate cortex | side-effects versus placebo [6]: associated with more side-effects
